According to the supplement of paper PMC10307832:

How the values were obtained:
Test in all cases: relative viability (nuclei count vs DMSO), 5 days (fraction); higher = more cells survive
Apatinib + Olaparib = compound: N#CC1(c2ccc(NC(=O)c3cccnc3NCc3ccncc3)cc2)CCCC1 [Apatinib] + O=C(c1cc(Cc2n[nH]c(=O)c3ccccc23)ccc1F)N1CCN(C(=O)C2CC2)CC1 [Olaparib] (partner 8 µM)
In short: (§1)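 For relative viability, nuclei counts in treated wells were divided by those in vehicle wells. Lung cancer cell lines had been pin-tool dosed in 1536-well plates the day after seeding and cultured for 5 days, then fixed and stained in one step (final 0.05% Triton X-100, 1% formaldehyde, 1 ug/ml Hoechst) and imaged at 4×. Doses were one drug alone or a fixed anchor-drug dose plus five library-drug doses (not always all listed) in √10 steps, and values are duplicate-plate medians.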

Apatinib + Pictilisib = compound: N#CC1(c2ccc(NC(=O)c3cccnc3NCc3ccncc3)cc2)CCCC1 [Apatinib] + CS(=O)(=O)N1CCN(Cc2cc3nc(-c4cccc5[nH]ncc45)nc(N4CCOCC4)c3s2)CC1 [Pictilisib] (partner 1 µM)
In short: as §1

Apatinib + Palbociclib = compound: N#CC1(c2ccc(NC(=O)c3cccnc3NCc3ccncc3)cc2)CCCC1 [Apatinib] + CC(=O)c1c(C)c2cnc(Nc3ccc(N4CCNCC4)cn3)nc2n(C2CCCC2)c1=O [Palbociclib] (partner 0.5 µM)
In short: as §1

Metformin + Palbociclib = compound: CN(C)C(=N)NC(=N)N [Metformin] + CC(=O)c1c(C)c2cnc(Nc3ccc(N4CCNCC4)cn3)nc2n(C2CCCC2)c1=O [Palbociclib] (partner 0.5 µM)
In short: as §1

ABC-1 was tested, and the relative viability (Apatinib + Olaparib; first compound 0.253 µM) was 0.957, the relative viability (Apatinib + Olaparib; first compound 0.8 µM) was 0.626 and the relative viability (Apatinib + Olaparib; first compound 2.53 µM) was 0.769. For the same cell line, the relative viability (Apatinib + Olaparib; first compound 8 µM) was 0.638, the relative viability (Apatinib + Pictilisib; first compound 0.253 µM) was 1.01 and the relative viability (Apatinib + Pictilisib; first compound 0.8 µM) was 0.637. It also gave a relative viability (Apatinib + Pictilisib; first compound 2.53 µM) of 0.752, a relative viability (Apatinib + Pictilisib; first compound 8 µM) of 0.552 and a relative viability (Apatinib + Palbociclib; first compound 0.253 µM) of 1.02. For the same cell line, the relative viability (Apatinib + Palbociclib; first compound 0.8 µM) was 0.663, the relative viability (Apatinib + Palbociclib; first compound 2.53 µM) was 0.531 and the relative viability (Apatinib + Palbociclib; first compound 8 µM) was 0.583. It also gave a relative viability (Metformin + Palbociclib; first compound 31.62 µM) of 0.9, a relative viability (Metformin + Palbociclib; first compound 100 µM) of 0.62 and a relative viability (Metformin + Palbociclib; first compound 316.23 µM) of 0.592. For the same cell line, the relative viability (Metformin + Palbociclib; first compound 1000 µM) was 0.279.

For NCI-H1915, the relative viability (Apatinib + Olaparib; first compound 0.08 µM) was 0.262, the relative viability (Apatinib + Olaparib; first compound 0.253 µM) was 0.257 and the relative viability (Apatinib + Olaparib; first compound 0.8 µM) was 0.266. For the same cell line, the relative viability (Apatinib + Olaparib; first compound 2.53 µM) was 0.264, the relative viability (Apatinib + Olaparib; first compound 8 µM) was 0.239 and the relative viability (Apatinib + Pictilisib; first compound 0.08 µM) was 1.12. For the same cell line, the relative viability (Apatinib + Pictilisib; first compound 0.253 µM) was 0.91, the relative viability (Apatinib + Pictilisib; first compound 0.8 µM) was 0.943 and the relative viability (Apatinib + Pictilisib; first compound 2.53 µM) was 0.878. It also gave a relative viability (Apatinib + Pictilisib; first compound 8 µM) of 0.752, a relative viability (Apatinib + Palbociclib; first compound 0.08 µM) of 0.549 and a relative viability (Apatinib + Palbociclib; first compound 0.253 µM) of 0.524. It also gave a relative viability (Apatinib + Palbociclib; first compound 0.8 µM) of 0.555, a relative viability (Apatinib + Palbociclib; first compound 2.53 µM) of 0.5 and a relative viability (Apatinib + Palbociclib; first compound 8 µM) of 0.475. For the same cell line, the relative viability (Metformin + Palbociclib; first compound 31.62 µM) was 0.406, the relative viability (Metformin + Palbociclib; first compound 100 µM) was 0.515 and the relative viability (Metformin + Palbociclib; first compound 316.23 µM) was 0.462. It also gave a relative viability (Metformin + Palbociclib; first compound 1000 µM) of 0.463.

Work on BEN yielded a relative viability (Apatinib + Olaparib; first compound 0.08 µM) of 1.35, a relative viability (Apatinib + Olaparib; first compound 0.253 µM) of 1.24 and a relative viability (Apatinib + Olaparib; first compound 0.8 µM) of 1.13. For the same cell line, the relative viability (Apatinib + Olaparib; first compound 2.53 µM) was 0.987, the relative viability (Apatinib + Olaparib; first compound 8 µM) was 0.774 and the relative viability (Apatinib + Pictilisib; first compound 0.08 µM) was 0.557. It also gave a relative viability (Apatinib + Pictilisib; first compound 0.253 µM) of 0.526, a relative viability (Apatinib + Pictilisib; first compound 0.8 µM) of 0.55 and a relative viability (Apatinib + Pictilisib; first compound 2.53 µM) of 0.464. It also gave a relative viability (Apatinib + Pictilisib; first compound 8 µM) of 0.468, a relative viability (Apatinib + Palbociclib; first compound 0.08 µM) of 0.521 and a relative viability (Apatinib + Palbociclib; first compound 0.253 µM) of 0.453. It also gave a relative viability (Apatinib + Palbociclib; first compound 0.8 µM) of 0.466, a relative viability (Apatinib + Palbociclib; first compound 2.53 µM) of 0.478 and a relative viability (Apatinib + Palbociclib; first compound 8 µM) of 0.407. For the same cell line, the relative viability (Metformin + Palbociclib; first compound 10 µM) was 0.503, the relative viability (Metformin + Palbociclib; first compound 31.62 µM) was 0.529 and the relative viability (Metformin + Palbociclib; first compound 100 µM) was 0.523. It also gave a relative viability (Metformin + Palbociclib; first compound 316.23 µM) of 0.436 and a relative viability (Metformin + Palbociclib; first compound 1000 µM) of 0.456.

ChaGo-K-1 gave a relative viability (Apatinib + Olaparib; first compound 0.08 µM) of 0.47, a relative viability (Apatinib + Olaparib; first compound 0.253 µM) of 0.523 and a relative viability (Apatinib + Olaparib; first compound 0.8 µM) of 0.443. For the same cell line, the relative viability (Apatinib + Olaparib; first compound 2.53 µM) was 0.408, the relative viability (Apatinib + Olaparib; first compound 8 µM) was 0.344 and the relative viability (Apatinib + Pictilisib; first compound 0.253 µM) was 0.999. The relative viability (Apatinib + Pictilisib; first compound 0.8 µM) was 0.721, the relative viability (Apatinib + Pictilisib; first compound 2.53 µM) was 0.638 and the relative viability (Apatinib + Pictilisib; first compound 8 µM) was 0.725. The relative viability (Apatinib + Palbociclib; first compound 0.08 µM) was 0.993, the relative viability (Apatinib + Palbociclib; first compound 0.253 µM) was 1.04 and the relative viability (Apatinib + Palbociclib; first compound 0.8 µM) was 0.908. For the same cell line, the relative viability (Apatinib + Palbociclib; first compound 2.53 µM) was 0.9, the relative viability (Apatinib + Palbociclib; first compound 8 µM) was 0.772 and the relative viability (Metformin + Palbociclib; first compound 10 µM) was 0.92. It also gave a relative viability (Metformin + Palbociclib; first compound 31.62 µM) of 0.897, a relative viability (Metformin + Palbociclib; first compound 100 µM) of 0.957 and a relative viability (Metformin + Palbociclib; first compound 316.23 µM) of 0.716. The relative viability (Metformin + Palbociclib; first compound 1000 µM) was 0.967.

For NCI-H1355, the relative viability (Apatinib + Olaparib; first compound 0.08 µM) was 0.787, the relative viability (Apatinib + Olaparib; first compound 0.253 µM) was 0.798 and the relative viability (Apatinib + Olaparib; first compound 0.8 µM) was 0.745. The relative viability (Apatinib + Olaparib; first compound 2.53 µM) was 0.647, the relative viability (Apatinib + Olaparib; first compound 8 µM) was 0.616 and the relative viability (Apatinib + Pictilisib; first compound 0.08 µM) was 0.499. For the same cell line, the relative viability (Apatinib + Pictilisib; first compound 0.253 µM) was 0.42, the relative viability (Apatinib + Pictilisib; first compound 0.8 µM) was 0.428 and the relative viability (Apatinib + Pictilisib; first compound 2.53 µM) was 0.382. For the same cell line, the relative viability (Apatinib + Pictilisib; first compound 8 µM) was 0.364, the relative viability (Apatinib + Palbociclib; first compound 0.08 µM) was 0.379 and the relative viability (Apatinib + Palbociclib; first compound 0.253 µM) was 0.394. For the same cell line, the relative viability (Apatinib + Palbociclib; first compound 0.8 µM) was 0.367, the relative viability (Apatinib + Palbociclib; first compound 2.53 µM) was 0.378 and the relative viability (Apatinib + Palbociclib; first compound 8 µM) was 0.366. The relative viability (Metformin + Palbociclib; first compound 10 µM) was 0.341, the relative viability (Metformin + Palbociclib; first compound 31.62 µM) was 0.36 and the relative viability (Metformin + Palbociclib; first compound 100 µM) was 0.382. For the same cell line, the relative viability (Metformin + Palbociclib; first compound 316.23 µM) was 0.358 and the relative viability (Metformin + Palbociclib; first compound 1000 µM) was 0.383.

NCI-H1975 gave a relative viability (Apatinib + Olaparib; first compound 0.08 µM) of 0.795, a relative viability (Apatinib + Olaparib; first compound 0.253 µM) of 0.77 and a relative viability (Apatinib + Olaparib; first compound 0.8 µM) of 0.727. For the same cell line, the relative viability (Apatinib + Olaparib; first compound 2.53 µM) was 0.723, the relative viability (Apatinib + Olaparib; first compound 8 µM) was 0.634 and the relative viability (Apatinib + Pictilisib; first compound 0.08 µM) was 0.305. The relative viability (Apatinib + Pictilisib; first compound 0.253 µM) was 0.335, the relative viability (Apatinib + Pictilisib; first compound 0.8 µM) was 0.304 and the relative viability (Apatinib + Pictilisib; first compound 2.53 µM) was 0.28. For the same cell line, the relative viability (Apatinib + Pictilisib; first compound 8 µM) was 0.322, the relative viability (Apatinib + Palbociclib; first compound 0.08 µM) was 0.654 and the relative viability (Apatinib + Palbociclib; first compound 0.253 µM) was 0.634. For the same cell line, the relative viability (Apatinib + Palbociclib; first compound 0.8 µM) was 0.597, the relative viability (Apatinib + Palbociclib; first compound 2.53 µM) was 0.522 and the relative viability (Apatinib + Palbociclib; first compound 8 µM) was 0.526. The relative viability (Metformin + Palbociclib; first compound 10 µM) was 0.438, the relative viability (Metformin + Palbociclib; first compound 31.62 µM) was 0.682 and the relative viability (Metformin + Palbociclib; first compound 100 µM) was 0.584. The relative viability (Metformin + Palbociclib; first compound 316.23 µM) was 0.591 and the relative viability (Metformin + Palbociclib; first compound 1000 µM) was 0.644.

With HCC-44 the relative viability (Apatinib + Olaparib; first compound 0.08 µM) was 0.989, the relative viability (Apatinib + Olaparib; first compound 0.253 µM) was 1 and the relative viability (Apatinib + Olaparib; first compound 0.8 µM) was 0.924. It also gave a relative viability (Apatinib + Olaparib; first compound 2.53 µM) of 0.97, a relative viability (Apatinib + Olaparib; first compound 8 µM) of 0.971 and a relative viability (Apatinib + Pictilisib; first compound 0.08 µM) of 0.639. It also gave a relative viability (Apatinib + Pictilisib; first compound 0.253 µM) of 0.686, a relative viability (Apatinib + Pictilisib; first compound 0.8 µM) of 0.584 and a relative viability (Apatinib + Pictilisib; first compound 2.53 µM) of 0.548. The relative viability (Apatinib + Pictilisib; first compound 8 µM) was 0.659, the relative viability (Apatinib + Palbociclib; first compound 0.08 µM) was 0.999 and the relative viability (Apatinib + Palbociclib; first compound 0.253 µM) was 0.987. The relative viability (Apatinib + Palbociclib; first compound 0.8 µM) was 0.894, the relative viability (Apatinib + Palbociclib; first compound 2.53 µM) was 0.839 and the relative viability (Apatinib + Palbociclib; first compound 8 µM) was 0.8. The relative viability (Metformin + Palbociclib; first compound 31.62 µM) was 0.917, the relative viability (Metformin + Palbociclib; first compound 100 µM) was 0.959 and the relative viability (Metformin + Palbociclib; first compound 316.23 µM) was 0.93. For the same cell line, the relative viability (Metformin + Palbociclib; first compound 1000 µM) was 0.887.

NCI-H2087 showed a relative viability (Apatinib + Olaparib; first compound 0.08 µM) of 0.633, a relative viability (Apatinib + Olaparib; first compound 0.253 µM) of 0.653 and a relative viability (Apatinib + Olaparib; first compound 0.8 µM) of 0.541. It also gave a relative viability (Apatinib + Olaparib; first compound 2.53 µM) of 0.645, a relative viability (Apatinib + Olaparib; first compound 8 µM) of 0.493 and a relative viability (Apatinib + Pictilisib; first compound 0.08 µM) of 0.864. The relative viability (Apatinib + Pictilisib; first compound 0.253 µM) was 0.815, the relative viability (Apatinib + Pictilisib; first compound 0.8 µM) was 0.826 and the relative viability (Apatinib + Pictilisib; first compound 2.53 µM) was 0.749. For the same cell line, the relative viability (Apatinib + Pictilisib; first compound 8 µM) was 0.779, the relative viability (Apatinib + Palbociclib; first compound 0.08 µM) was 0.231 and the relative viability (Apatinib + Palbociclib; first compound 0.253 µM) was 0.256. For the same cell line, the relative viability (Apatinib + Palbociclib; first compound 0.8 µM) was 0.248, the relative viability (Apatinib + Palbociclib; first compound 2.53 µM) was 0.266 and the relative viability (Apatinib + Palbociclib; first compound 8 µM) was 0.178. For the same cell line, the relative viability (Metformin + Palbociclib; first compound 10 µM) was 0.263, the relative viability (Metformin + Palbociclib; first compound 31.62 µM) was 0.226 and the relative viability (Metformin + Palbociclib; first compound 100 µM) was 0.268. For the same cell line, the relative viability (Metformin + Palbociclib; first compound 316.23 µM) was 0.218 and the relative viability (Metformin + Palbociclib; first compound 1000 µM) was 0.235.
